Structures can show the parent of a compound that is named as a salt.
Assays:
[1] = tested on: Schaffer-CA1 synaptic transmission in rat ventral hippocampal slices; assay: Field EPSP recordings from ventral hippocampal slices
[2] = tested on: Schaffer-CA1 synaptic transmission in dorsal hippocampal slices; assay: Field EPSP recordings from dorsal hippocampal slices; settings: SKF 38393 20 nM, n=3
D1 receptors = assay: ERK1/2 phosphorylation in transfected CHO cells expressing D1 receptors
D5 receptors = assay: ERK1/2 phosphorylation in transfected CHO cells expressing D5 receptors
D1-like receptors = settings: ref Hersi et al., 1995; cited from earlier work
galanin receptor [3] = settings: ref Lang et al., 2007; cited from earlier work
galanin receptor [4] = settings: ref Lang et al., 2007; cited from earlier work; remark: listed apart in the source

Oc1cc2c(cc1O)C(c1ccccc1)CNCC2 (racemic) [SKF 38393, (±)-1-Phenyl-2,3,4,5-tetrahydro-(1H)-3-benzazepine-7,8-diol hydrobromide]
effect on synaptic transmission (fEPSP) ([1]; SKF 38393 20 nM after atropine (5 µM, at least 30 min before)): did not significantly affect synaptic transmission
effect on the slope of fEPSP ([1]; SKF 38393 20 nM alone, n=7): virtually devoid of effect
effect on fEPSP slope [2]: devoid of any effect on fEPSP slope

Br.Oc1cc2c(c(Cl)c1O)CCNCC2c1ccccc1 (racemic) [SKF 81297]
ERK1/2 phosphorylation, time course (D1 receptors; SKF 81297 (text 50 nM; Fig. 4 legend 70 nM), cells expressing D1): time-dependently induced ERK1/2 phosphorylation
ERK1/2 phosphorylation, time course (D5 receptors; SKF 81297 50 nM, cells expressing D5): time-dependently induced ERK1/2 phosphorylation

CN1[C@@H]2CC[C@H]1C[C@@H](OC(=O)C(CO)c1ccccc1)C2 (some centres unmarked) [atropine]
effect on fEPSP ([1]; atropine 5 µM by itself): did not significantly modify fEPSP

NCCc1ccc(O)c(O)c1 [dopamine]
effect on hippocampal ACh release (D1-like receptors): facilitates hippocampal ACh release by acting on D1-like receptors

galanin (1–13)-Pro-Pro-(Ala-Leu-)2Ala amide [M40]
antagonism of SKF 81297-induced ERK1/2 phosphorylation (D1 receptors; antagonist 10 µM, 20 min prior, SKF 81297 70 nM, 5 min, cells only expressing D1): not modified by the presence of M40
antagonism of SKF 81297-induced ERK1/2 phosphorylation (D5 receptors; antagonist 10 µM, 20 min prior, SKF 81297 70 nM, 5 min, cells only expressing D5): not modified by the presence of M40
agonism in cell lines (galanin receptor [3]): full agonists in some cell lines
antagonism in vivo (galanin receptor [4]): clearly antagonists in vivo

Source: publication PMC3109911 (The Journal of neuroscience : the official journal of the …, 2011)
